Measurements: patent publication US20210147507A1, “METHODS TO AUGMENT OR ALTER SIGNAL TRANSDUCTION” (Bellicum Pharmaceuticals, Inc., priority 2017, published 2021)
Where two headings read alike, the source gives them in different places.

Legend:
[1] = target: wild-type phenylalanine 36 FKBP12 (Homo sapiens, UniProt P62942); settings: cited from earlier work
[2] = cited from earlier work; for safety and tolerability (in words): healthy volunteers
cells = test: Rimiducid amount needed in vitro for effective signaling of cells; format: cell-based
Experimental: This equates to 14-140 μg/L or ˜0.014-0.14 mg/kg ([…]). The dosage may vary according to the application, and may, in certain examples, be more in the range of 0.1-10 nM, or in the range of 50-150 nM, 10-200 nM, 75-125 nM, 100-500 nM, 100-600 nM, 100-700 nM, 100-800 nM, or 100-900 nM.

[3] = tested on: CD3+ΔCD19+ iCasp9 T cells / GvHD; test: Phase I clinical trial of allodepleted T cells transduced with iCasp9 after haploidentical stem cell transplantation; format: in vivo, human
Source text: This example presents results of a phase 1 clinical trial using an alternative suicide gene strategy. Briefly, donor peripheral blood mononuclear cells were co-cultured with recipient irradiated EBV-transformed lymphoblastoid cells (40:1) for 72 hrs., allodepleted with a CD25 immunotoxin and then transduced with a retroviral supernatant carrying the iCasp9 suicide gene and a selection marker (ΔCD19); ΔCD19 allowed enrichment to >90% purity via immunomagnetic selection.
Patients developing grade 1 GvHD were treated with 0.4 mg/kg AP1903 as a 2-hour infusion.
Three patients received iCasp9^+ T cells after haplo-CD34^+ stem cell transplantation (SCT), at dose levels between about 1×10^6 to about 3×10^6 cells/kg.

[4] = tested on: HPAC pancreatic cancer cells; test: T cell anti-tumor assay: PSCA CAR-T cells with iM-X cocultured with HPAC-RFP cells (IncuCyte); format: cell-based, human; settings: 1 nM
Experimental: The HPAC PSCA^+ tumor cells were stably labeled with nuclear-localized RFP protein using the NucLight™ Red Lentivirus Reagent (Essen Bioscience, 4625). To set up the coculture, 4000 HPAC-RFP cells were seeded per well of 96-well plates in 100 μl of CTL medium without IL-2 for at least 4 hours to allow tumor cells to adhere. After transduction with the appropriate retrovirus and having been allowed to rest for at least 7 days in culture, T were seeded according to various E:T ratios in the HPAC-RFP-containing 96-well plates. […] Each plate was set up in duplicates, one plate to monitor with the IncuCyte and one plate for supernatant collection for ELISA assay on day 2. The plates were centrifuged for 5 min at 400×g and placed inside the IncuCyte (Dual Color Model 4459) to monitor red fluorescence (and green fluorescence if T cells were labeled with GFP-Ffluc) every 2-3 hours for a total of 7 days at 10× objective. Image analysis was performed using the “HPAC-RFP-_TcellsGFP_10×_MLD” processing definition. On day 7, HPAC-RFP cells were analyzed using the “Red Object Count (1/well)” metric. Also on day 7, 0 or 10 nM of suicide drug were added to each well of the coculture and placed back in the IncuCyte to monitor T cell elimination. On day 8, Tcell-GFP cells were analyzed using the “Total Green Object Integrated Intensity” metric. […]

Chain of wild-type phenylalanine 36 FKBP12 (P62942 whole entry): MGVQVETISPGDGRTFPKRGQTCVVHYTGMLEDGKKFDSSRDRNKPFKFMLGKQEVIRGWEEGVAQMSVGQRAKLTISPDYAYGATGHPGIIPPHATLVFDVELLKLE

## CC[C@H](C(=O)N1CCCC[C@H]1C(=O)O[C@H](CCc1ccc(OC)c(OC)c1)c1cccc(OCC(=O)NCCNC(=O)COc2cccc([C@@H](CCc3ccc(OC)c(OC)c3)OC(=O)[C@@H]3CCCCN3C(=O)[C@@H](CC)c3cc(OC)c(OC)c(OC)c3)c2)c1)c1cc(OC)c(OC)c(OC)c1 (relative stereo) [rimiducid, 2-Piperidinecarboxylic acid, 1-[(2S)-1-oxo-2-(3,4,5-trimethoxyphenyl)butyl]-, 1,2-ethanediylbis [imino(2-oxo-2,1-ethanediyl)oxy-3,1-phenylene[(1R)-3-(3,4-Dimethoxyphenyl)propylidene]] ester, [2S-[1(R*),2R*[S*[S*[1(R*),2R1]]]]]-(9C1)]
[1]
  binding to FKBP12 (in words): not able to bind
[2]; 1.0 mg/kg
  duration of the adverse event: 32 min
  onset of the adverse event after start of infusion: 3 min
[2]; 0.01-1.0 mg/kg dose range, infused IV over 2 hours
  mean Cmax: 10 to 1275 ng/mL
[2]; 0.01-1.0 mg/kg
  plasma levels versus dose: directly proportional to dose
  safety and tolerability (in words): No significant adverse effects
[2]; 1 volunteer at 1.0 mg/kg
  adverse event considered possibly related: vasodilatation
[2]; 0.5 hours post-dose
  plasma level, % of maximal concentration: 18%
[2]; 0.5 hours post-dose, listed as Rimiducid
  plasma level, % of maximal concentration: approximately 18%
[2]; 2 hours post-dose
  plasma level, % of maximal concentration: ~7%
[2]; 10 hours post-dose
  plasma level, % of maximal concentration: ~1%
[2]; Phase I study
  well-tolerated dose: up to 1 mg/kg
[2]; following each treatment
  incidence of adverse events: very low
[2]; 0.01-1.0 mg/kg, listed as AP1903
  safety and tolerability (in words): No serious adverse events
[2]; human, in vivo
  pharmacokinetic profile (in words): favorable pharmacokinetic profile
cells
  amount needed for effective signaling, converted: 0.014 to 0.14 mg/kg
  amount needed in vitro for effective signaling of cells: 10 to 100 nM
cells; MW 1412 Da
  amount needed for effective signaling, converted: 14 to 140 µg/L
[3]; after rimiducid administration
  time to resolution of skin and liver GvHD: ≤ 24 h
[3]; within 30 minutes of infusion, two patients with grade I/II GvHD
  ablation of CD3+ΔCD19+ cells: > 90%
[3]; within 24 hours
  further reduction of CD3+ΔCD19+ cells: further log reduction
[4]; Not Transduced (NT) primary T cells
  effect on cell growth of tumor or T cell: did not affect the cell growth
[4]; T cells expressing the inducible chimeric signaling polypeptide
  effect on T cell efficacy: augmented T cell efficacy
